In ChEMBL document CHEMBL1132839, “Substituted 3-(2-benzoxazyl)-benzimidazol-2-(1H)-ones: a new class of GABA(A) brain receptor ligands” (Bioorg Med Chem Lett, 2000):
pIC50, pKi: −log10 of the molar value.

biological target: GABA-A receptor; anion channel; test: Inhibition of GABA-A benzodiazepine receptor; assay type: protein-complex assay

| Structure (SMILES) | pIC50 |
| --- | --- |
| O=C1NC2CCCCCC2N1c1nc2cc(Cl)ccc2o1 (stereo not given) | 6.85 |

biological target: GABA-A receptor; anion channel; test: Binding affinity against GABA-A benzodiazepine receptor; assay type: protein-complex assay

| Structure (SMILES) | pKi |
| --- | --- |
| O=C1NC2CCCCCC2N1c1nc2cc(F)ccc2o1 (stereo not given) | 8.30 |
| Oc1nc2c(n1-c1nc3ccc(F)cc3o1)CCCC2 | 7.33 |
| Cc1ccc2nc(-n3c(O)nc4ccccc43)oc2c1 | 6.52 |
| Oc1nc2c(n1-c1nc3ccccc3o1)CCCC2 | 7.25 |
| O=C1NC2CCCCCC2N1c1nc2ccc(F)cc2o1 (stereo not given) | 8.30 |
| O=C1NC2CCCCCC2N1c1nc2ccc(F)c(F)c2o1 (stereo not given) | 8.52 |
| Cc1ccc2nc(N3C(=O)NC4CCCCCC43)oc2c1 (stereo not given) | 6.80 |
| Oc1nc2cc(F)ccc2n1-c1nc2cccc(F)c2o1 | 7.85 |
| O=C1NC2CCCCC2N1c1nc2ncccc2o1 (stereo not given) | < 6.00 |
| COc1ccc2nc(N3C(=O)NC4CCCCCC43)oc2c1 (stereo not given) | 6.60 |
| COc1ccc2oc(-n3c(O)nc4c3CCCC4)nc2c1 | 7.09 |
| Oc1nc2ccccc2n1-c1nc2cc(F)ccc2o1 | 6.79 |
| O=C1NC2CCCCCC2N1c1nc2cc(F)cc(F)c2o1 (stereo not given) | 8.15 |
| COc1ccc2nc(-n3c(O)nc4c3CCCC4)oc2c1 | 6.62 |
| Oc1nc2ccccc2n1-c1nc2ccccc2s1 | < 5.00 |
| Oc1nc2ccc(F)cc2n1-c1nc2ccccc2o1 | 7.24 |
| O=C1NC2CCCCCC2N1c1nc2ccccc2o1 (stereo not given) | 8.10 |
| Cc1ccc2oc(N3C(=O)NC4CCCCCC43)nc2c1 (stereo not given) | 7.82 |
| Oc1nc2ccccc2n1-c1nc2ncccc2o1 | 7.36 |
| Oc1nc2c(n1-c1nc3cccc(F)c3o1)CCCC2 | 7.28 |

| Structure (SMILES) | pKi |
| --- | --- |
| Oc1nc2cccnc2n1-c1nc2ccccc2o1 | 6.14 |
| Oc1nc2ccccc2n1-c1nc2ccccc2o1 | 7.27 |
| O=C1NC2CCCCCC2N1c1nc2cc(F)c(F)cc2o1 (stereo not given) | 7.06 |
| O=C1NC2CCCCCC2N1c1nc2c(F)cc(F)cc2o1 (stereo not given) | 7.19 |
| Oc1nc2ccccc2n1-c1nc2cccc(F)c2o1 | 7.41 |
| COc1ccc2oc(N3C(=O)NC4CCCCCC43)nc2c1 (stereo not given) | 7.60 |
| Oc1nc2ccccc2n1-c1nc2ccc(F)c(F)c2o1 | 7.70 |
| Oc1nc2cc(F)ccc2n1-c1nc2ccccc2o1 | 7.49 |
| Oc1nc2ccccc2n1-c1nc2ccc(F)cc2o1 | 7.05 |
| Oc1nc2c(n1-c1nc3ccc(F)c(F)c3o1)CCCC2 | 7.68 |
| O=C1NC2CCCCCC2N1c1nc2ncccc2o1 (stereo not given) | 6.86 |
| Oc1nc2ccccc2c2nc(-c3ccccc3)nn12 | 8.40 |
| COc1ccc2oc(-n3c(O)nc4ccccc43)nc2c1 | 7.04 |
| COc1ccc2nc(-n3c(O)nc4ccccc43)oc2c1 | 6.21 |
| Oc1nc2cc(F)ccc2n1-c1nc2ccc(F)cc2o1 | 7.60 |
| Cn1c(=O)n(-c2nc3ccccc3o2)c2ccccc21 | < 5.00 |
| O=C1NC2CCCCCC2N1c1nc2cccc(F)c2o1 (stereo not given) | 8.30 |
| Oc1nc2ccc(F)cc2n1-c1nc2cccc(F)c2o1 | 7.82 |
| Oc1nc2c(n1-c1nc3cc(F)ccc3o1)CCCC2 | 7.59 |
